≈ marks a conversion by molar mass, not a printed value.
Key:
Assay type in all cases: physicochemical
[1] = Solubility, EP (European Pharmacopoeia) aliquot addition method; conditions: 25° C., EP method (kinetic solubility)
Experimental: All samples to be tested were passed through number 180 and number 125 sieves to ensure that they were finely powdered prior to testing, i.e. not less than 95% of sample mass passed through a […] sieve and not more than 40% passed through a 38 μm sieve.
The vial containing the test material and chosen solvent was shaken on a vortex mixer for 1 minute. The vial was placed in a water bath maintained at 25° C.±0.5° C. for 15 minutes. If particles were still remaining, the vial was shaken again for 1 minute using the vortex mixer and returned to the water bath for a further 15 minutes.
Approximately 100 mg of the test material was weighed into a vial and 0.1 mL of the chosen solvent was added. This was treated as described in the procedure above. […] After each addition of solvent the contents of the vial were treated as described in the dissolving procedure. […] After the dissolving procedure was complete, the solubility of the material was visually determined. […] Results obtained were reported.
The solubility of Compound 1 Form I was determined by two different methods. The EP (European Pharmacopoeia) method is an aliquot addition method which gives a rough assessment of kinetic solubility. The equilibrium method requires the suspension of solid for an extended period in the dissolving medium. […]

[2] = Equilibrium solubility in buffer, HPLC
Experimental: Approximately 25 mg of test substance was weighed into glass test tubes. The relevant volume of buffer solution (10 mL) was added to each vessel. The tests were performed in duplicate. The vessels were lightly sealed and agitated at 25°C. in a shaking thermostatted water bath protected from light. Sampling was performed after 24 hours and thereafter not less than 20 hours between sample time points. Sampling was performed by filtration of a portion of the test slurry through a 0.2 μm filter and dilution in appropriate media for HPLC analysis.
Equilibrium solubility was determined by HPLC by using:
[formula] where the Standard Purity was taken as 95%.
(§1) Buffer pH 7.0 samples were prepared by removing approximately 1 mL of the solution from the appropriate glass test tube and filtering into a HPLC vial using a PTFE 0.2 μm syringe filter. The concentration of the Compound 1 in the filtrate was determined by comparison with data of the standard sample (about 0.25 mg/g).
as §1, with “5.0” for “7.0”, “The filtered solution was diluted by a factor of 5 and approximately 1 mL of this solution was added into a HPLC vial for analysis. The” for “The”
At the end of the solubility study, the solids were isolated from the experimental slurries, filtered, dried and analyzed by XRPD in order to determine the physical form.
The solubility of Compound 1 Form I was determined by two different methods. The EP (European Pharmacopoeia) method is an aliquot addition method which gives a rough assessment of kinetic solubility. The equilibrium method requires the suspension of solid for an extended period in the dissolving medium. […] The EP method indicated solubility of Compound 1 Form I to be insoluble in water and be soluble in ethanol at 33-100 mg/ml.
The concentration of the samples was assessed by HPLC.

[3] = Intrinsic dissolution rate (IDR); conditions: pH 5.0 USP buffer, 37° C., 50 RPM; Form I from one non capped pellet
Experimental: For intrinsic dissolution studies (IDR) an isocratic HPLC method with a shorter run time (10 mins) was used due to the high number of sample analyses required (Table 2).
Distek 8 mm intrinsic dissolution apparatus was used for the study. The three fixed screws on the surface plate were inserted through the three holes on the die and fastened with the supplied washers and nuts. 100 mg of test material was placed in the die cavity. The punch was inserted into the cavity and compressed, with the aid of a bench top hydraulic press for 30 sec at 1 ton pressure. The surface plate was disconnected from the die to expose a compact pellet of 0.5 cm^2 surface area. The pellets were checked for any breaks and cracks on the surface. Only the pellets with flat even surface with no irregularities were used for the study. The Viton gasket was placed around the threaded shoulder of the die and a polypropylene cap was screwed on to the threads. The assembly was immersed, pellet side up, into the bottom of the dissolution vessel (flat bottom) containing dissolution medium at 37° C. The media is degassed under helium purge for 15 min prior to use.
• Dissolution media: pH 5.0 USP buffer • Vessel volume: 900 mL • Rotation speed: 50 RPM • Temperature: 37° C.±0.5° C. • Sampling time points: 30, 60, 90, 120 and 150 mins • Sample size: 1 mL • Sample analysis: By HPLC (conditions in Table 2 above)
Three samples of Form I, II, III and trihydrate were checked for IDR in USP pH 5.0 buffer. The samples were checked for any changes in their surface after dropping into the dissolution medium. […] The particles relax on contact with water during dissolution, causing capping of the surface. So IDR was calculated for Form I based on drug release from one non capped pellet. […] The samples were collected manually through a cannula fitted with 10 μm inline filters. The samples collected from dissolution run were analyzed by HPLC.
The average of all three runs was used to plot and calculate the IDR of samples, with the exception of Form I. The average dissolution profile for each Form is shown in FIG. 12.
After the dissolution test, the remaining portion of the pressed discs were dried in air and examined by XRPD.

[4] = Dynamic vapour sorption (DVS) hygroscopicity
Experimental: Dynamic Vapour Sorption (DVS) was performed using a Hiden Analytical Instruments IGAsorp Vapour Sorption Balance. Approximately 15 mg of sample was placed into a wire-mesh vapour sorption balance pan, loaded into the IGAsorp vapour sorption balance and held at 25° C.±0.1° C. The sample was subjected to a step profile from 0 to 90% RH at 10% increments, followed by desorption from […] to 0% RH at 10% increments. The equilibrium criterion was set to 99.5% step completion within a minimum of 60 minutes and a maximum of 10 hours for each increment. The weight change during the sorption cycle was monitored, allowing for the hygroscopic nature of the sample to be determined. The data collection interval was in seconds.
DVS analysis was used to investigate the hygroscopicity of Compound 1 Form I (FIG. 11). […] The overall weight gain up to 95% RH was 0.06% and weight gained up to 80% RH only 0.08%.
After completion of the cycle, the sample was removed from the instrument and no weight change was observed.

[5] = Interconversion experiments in ethyl acetate suspension (thermodynamic stability of forms), XRPD; conditions: for temperature range in which the form is the most stable polymorph (Form I/II transition): from interconversion experiments at 5, 10, 15, 21 & 60° C.
Experimental: Interconversion experiments were carried out using Forms I, II and III at 5° C., 10° C., 15° C., 21° C. and 60° C. in ethyl acetate. Suspensions of approximately equivalent amounts (about 75 mg) of each form in ethyl acetate (1.2 mL) were prepared and agitated at different temperatures. The slurries were stirred and sampled periodically (200 μL aliquot) after 30 mins and over the period of 10 days or until when near complete or complete conversion had occurred. The sampled aliquot was filtered, air dried and analyzed by XRPD.
In solvent mediated conversions, seeds of all Forms are present and there is no activation energy barrier to interconversion. This technique is used to identify the ‘true’ transition temperature and the thermodynamic relationship between the Forms. In order to determine the order of stability between each individual form interconversion experiments were performed using suspensions of pairs of each form in ethyl acetate at 5, 10 and 15° C. and suspensions of all Forms together at 21° C. and 60° C. The stirred suspensions of Forms I, II and III were sampled after 0.5 hr (t0), after 1, 2 and 3 days (t1-3) and 6 and 10 days if required.

[6] = Critical water activity for trihydrate formation in acetone/water; conditions: 21° C.
Experimental: Experiments to determine the critical water activity level with respect to trihydrate formation were performed in acetone/water. Different % v/v ratios of water in acetone were used for suspensions at 21° C. […] Using the Wilson VLE model, this equates to 0.38-0.49 or 0.35-0.44 using the UNIFAC model. This provides useful information for process chemists and formulators in later development.

Q: What does the source list for `CN(C)c1cc2c(cc1Sc1nc3c(N)nccc3n1CCNCC(C)(C)C)OCO2` [Compound 1 Form I]?
A: solubility at 15 min ([1]; organic solvent or mixture, ethanol): 33 to 100 mg/mL (≈ 74.6 to 226 mM); solubility in water (EP method) ([1]; water): insoluble; MEAN SOLUBILITY pH 5.1 ([2]; day 1, buffer pH 5.1, 25°C): 1.101 MG/G; MEAN SOLUBILITY pH 7.0 ([2]; day 1, buffer pH 7.0, 25°C): 0.074 MG/G; MEAN SOLUBILITY pH 5.1 ([2]; day 2, buffer pH 5.1, 25°C): 0.735 MG/G; MEAN SOLUBILITY pH 7.0 ([2]; day 2, buffer pH 7.0, 25°C): 0.043 MG/G; MEAN SOLUBILITY pH 5.1 ([2]; day 3, buffer pH 5.1, 25°C): 0.587 MG/G; MEAN SOLUBILITY pH 7.0 ([2]; day 3, buffer pH 7.0, 25°C): 0.031 MG/G; MEAN SOLUBILITY pH 5.1 ([2]; day 4, buffer pH 5.1, 25°C): 0.507 MG/G; MEAN SOLUBILITY pH 7.0 ([2]; day 4, buffer pH 7.0, 25°C): 0.025 MG/G; IDR [3]: 0.101 mg cm^−2 min^−1; weight gained up to 80% RH ([4]; DVS, 25° C., up to 80% RH): 0.08%; overall weight gain up to 95% RH ([4]; DVS, 25° C., up to 95% RH): 0.06%; hygroscopicity classification (European Pharmacopoeia) ([4]; weight increase at 80% RH (25° C.)): non-hygroscopic; thermodynamically most stable form ([5]; 21° C., ethyl acetate suspension of Forms I, II and III): thermodynamically most stable form; thermodynamically most stable form ([5]; 60° C., ethyl acetate suspension of Forms I, II and III): thermodynamically most stable form; temperature range in which the form is the most stable polymorph (Form I/II transition) [5]: above 18±2 °C

Q: For `CN(C)c1cc2c(cc1Sc1nc3c(N)nccc3n1CCNCC(C)(C)C)OCO2` [Form III], which IDR [3] is on record?
A: 0.266 mg cm^−2 min^−1

Q: Which IDR [3] does the source give for `CN(C)c1cc2c(cc1Sc1nc3c(N)nccc3n1CCNCC(C)(C)C)OCO2` [Form II] here?
A: 0.098 mg cm^−2 min^−1

Q: What about the “thermodynamically most stable form” value ([5]; 5° C., ethyl acetate suspension of pairs of forms) of the same molecule?
A: thermodynamically most stable form

Q: And the “thermodynamically most stable form” value ([5]; 10° C., ethyl acetate suspension of pairs of forms)?
A: thermodynamically most stable form

Q: And the “thermodynamically most stable form” value ([5]; 15° C., ethyl acetate suspension of pairs of forms)?
A: thermodynamically most stable form

Q: What about the “temperature range in which the form is the most stable polymorph (Form I/II transition)” value [5] of the same molecule?
A: lower than 18±2 °C

Q: Which IDR [3] does the source give for `CN(C)c1cc2c(cc1Sc1nc3c(N)nccc3n1CCNCC(C)(C)C)OCO2` [Trihydrate] here?
A: 0.184 mg cm^−2 min^−1

Q: What about the “critical water activity, UNIFAC model” value ([6]; UNIFAC model) of the same molecule?
A: 0.35-0.44

Q: What about the “critical water activity, Wilson VLE model” value ([6]; Wilson VLE model) of the same molecule?
A: 0.38-0.49

Source: patent publication US9150571B2, “Crystalline forms of fused amino pyridines as HSP90 inhibitors” (Debiopharm International SA, priority 2011, dated 2015)
